Laboratory results published in PubChem BioAssay (NCI).
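Following 48 hours of exposure in 96-well plates, responses at five concentrations were used to interpolate endpoints linearly. TGI is the concentration that stops growth completely.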

Assays:
Test in all cases: DTP human tumour cell line panel, 48 h
HT29 colon = tested on: HT29 colon
HOP-92 NSCLC = tested on: HOP-92 NSCLC
HCC-2998 colon = tested on: HCC-2998 colon
NCI-H226 lung = tested on: NCI-H226 lung
M14 melanoma = tested on: M14 melanoma
UO-31 renal = tested on: UO-31 renal
HCT-116 colon = tested on: HCT-116 colon
U251 CNS = tested on: U251 CNS
A549 NSCLC = tested on: A549 NSCLC
OVCAR-3 ovarian = tested on: OVCAR-3 ovarian
A498 renal = tested on: A498 renal
IGROV1 ovarian = tested on: IGROV1 ovarian
NCI/ADR-RES ovarian = tested on: NCI/ADR-RES ovarian
SF-539 CNS = tested on: SF-539 CNS
NCI-H522 lung = tested on: NCI-H522 lung
HL-60(TB) leukemia = tested on: HL-60(TB) leukemia
CAKI-1 renal = tested on: CAKI-1 renal
HS 578T breast = tested on: HS 578T breast
TK-10 renal = tested on: TK-10 renal
SN12C renal = tested on: SN12C renal
COLO 205 colon = tested on: COLO 205 colon
RXF 393 renal = tested on: RXF 393 renal
OVCAR-5 ovarian = tested on: OVCAR-5 ovarian
PC-3 prostate = tested on: PC-3 prostate
SK-MEL-5 melanoma = tested on: SK-MEL-5 melanoma
UACC-257 melanoma = tested on: UACC-257 melanoma
MDA-MB-435 = tested on: MDA-MB-435
EKVX NSCLC = tested on: EKVX NSCLC
OVCAR-4 ovarian = tested on: OVCAR-4 ovarian
CCRF-CEM leukemia = tested on: CCRF-CEM leukemia
K-562 leukemia = tested on: K-562 leukemia
MOLT-4 leukemia = tested on: MOLT-4 leukemia
MDA-MB-231 breast = tested on: MDA-MB-231 breast
SR leukemia = tested on: SR leukemia
DU-145 prostate = tested on: DU-145 prostate
SF-268 CNS = tested on: SF-268 CNS
OVCAR-8 ovarian = tested on: OVCAR-8 ovarian
NCI-H460 lung = tested on: NCI-H460 lung
SK-OV-3 ovarian = tested on: SK-OV-3 ovarian
786-0 renal = tested on: 786-0 renal
ACHN renal = tested on: ACHN renal
SNB-19 CNS = tested on: SNB-19 CNS
SK-MEL-2 melanoma = tested on: SK-MEL-2 melanoma
NCI-H23 lung = tested on: NCI-H23 lung
LOX IMVI melanoma = tested on: LOX IMVI melanoma
SK-MEL-28 melanoma = tested on: SK-MEL-28 melanoma
MDA-N = tested on: MDA-N
SW-620 colon = tested on: SW-620 colon
HOP-62 NSCLC = tested on: HOP-62 NSCLC
HCT-15 colon = tested on: HCT-15 colon
T-47D breast = tested on: T-47D breast
SF-295 CNS = tested on: SF-295 CNS
MALME-3M melanoma = tested on: MALME-3M melanoma
SNB-75 CNS = tested on: SNB-75 CNS
MCF7 breast = tested on: MCF7 breast
RPMI-8226 leukemia = tested on: RPMI-8226 leukemia
KM12 colon = tested on: KM12 colon
UACC-62 melanoma = tested on: UACC-62 melanoma

Measured: TGI

CCOC(=O)C(=CNc1ccc(S(N)(=O)=O)cc1)C(=O)OCC
not listed: KM12 colon | UACC-62 melanoma
> 100 µM: all other assays above

CCOP(=O)(OCC)/C(=C\n1ccc(=O)[nH]c1=S)C(=O)OC
not listed: HOP-92 NSCLC | OVCAR-3 ovarian | TK-10 renal | SNB-19 CNS
> 100 µM: all other assays above
